Measurements taken from patent US8809314B1, “Cephalosporin compound” (Cubist Pharmaceuticals, Inc., priority 2012, dated 2014).
≈ marks a conversion by molar mass, not a printed value. Where “and” joins values, the source holds several entries; their conditions need not be identical. Equal entries are not always repeated.

What was measured:
[1] = test system: Pseudomonas aeruginosa #44 (ATCC#27853); assay: Mouse septicemia (systemic infection), PD50; type: in vivo; conditions: Pa #44 (ATCC27853); CD-1 mice, IP inoculum, 2 SC doses at 1 and 6 hrs, 7 day survival
Method: (§1) In vivo efficacy of (I) was evaluated against strains of MRSA, and ceftazidime-resistant Pa and Klebsiella pneumonia (Kpn) in mouse septicemia, thigh and lung infections. Septicemia: CD-1 mice received lethal bacterial inocula IP, followed by 2 doses of antibiotics SC at 1 and 6 hrs post-inoculation. Dose calculated to protect 50% of the mice (PD50) was derived based on probit analysis of percentage survival. Thigh and lung infections: Thighs or lungs of neutropenic mice were inoculated with MRSA or Pa. Two treatment doses were given SC at 1 and 6 hrs post-inoculation. Tissues were harvested at ˜24 hrs post-inoculation and bacterial burdens quantified.
(§2) II. Methods • A. Animals: Six week-old, specific pathogen free, female CD-1 mice purchased from Charles River Laboratories (Wilmington, Mass.) were used for all studies after acclimation in Cubist animal facility. All animal procedures were approved by the Cubist Institutional Animal Care and Use Committee. • B. Bacteria and In Vitro Susceptibility Testing: MRSA #712, Pseudomonas aeruginosa #2245 and #2545, and Klebsiella pneumoniae #573 are clinical isolates; Pseudomonas aeruginosa #44 is an ATCC strain (ATCC#27853). MIC was determined in MHB by standard CLSI microdilution. […] The survival of animals was recorded daily for 7 days. The antibiotic dose calculated to protect 50% of the mice (PD50) was derived based on probit analysis of percentage survival. • E. Mouse Thigh and Lung Infections: Mice were rendered neutropenic by two IP injections of cyclophosphamide 4 days (150 mg/kg) and 1 day (100 mg/kg) before bacterial inoculation. […] Tissue bacterial burdens were quantified by serial dilution and spiral plating of homogenates.
III. […] The dose that protected 50% of the mice (PD50) was calculated by probit analysis based on percentage of mice surviving for 7 days post-inoculation. • C. […]

[2] = test system: ceftazidime-resistant Pseudomonas aeruginosa #2545; type: in vivo; conditions: Pa #2545; CD-1 mice, IP inoculum, 2 SC doses at 1 and 6 hrs, 7 day survival
Method: as §1
as §2, with “All animal procedures were approved by the Cubist Institutional Animal Care and Use Committee. • B. Bacteria and In Vitro Susceptibility Testing: MRSA #712, Pseudomonas aeruginosa #2245 and #2545, and Klebsiella pneumoniae #573 are clinical isolates; Pseudomonas aeruginosa #44 is an ATCC strain (ATCC#27853).” left out

[3] = test system: Klebsiella pneumoniae #573; assay: Mouse septicemia (systemic infection), PD50; type: in vivo; conditions: Kpn #573; CD-1 mice, IP inoculum, 2 SC doses at 1 and 6 hrs, 7 day survival
Method: as §1
as §2, with “All animal procedures were approved by the Cubist Institutional Animal Care and Use Committee. • B. Bacteria and In Vitro Susceptibility Testing: MRSA #712, Pseudomonas aeruginosa #2245 and #2545, and Klebsiella pneumoniae #573 are clinical isolates; Pseudomonas aeruginosa #44 is an ATCC strain (ATCC#27853).” left out

MRSA #712 = assay: Thigh infection in neutropenic mice; type: in vivo, Staphylococcus aureus; conditions: MRSA #712 thigh infection, neutropenic mice, 2 SC doses at 1 and 6 hrs, 24 h, vs vehicle
Method: as §1, §2

Pa2086 (mucoid strain) = assay: MIC, broth microdilution (Example 5), Table 3; type: cell-based; conditions: Pseudomonas aeruginosa
Method: (§3) II. […] MIC90 values were defined as the concentration required to inhibit growth of 90% of the strains tested. • C. SAR was performed using the following isolates: Sa399 (ATCC43300, MRSA), Sa1721 (NARSA NRS384, MRSA USA 300), Pa44 (ATCC27853), and 4 clinical isolates (Pa2241, Pa2086 (mucoid strain), Pa2694 and Pa2698). • D. The in vitro antibacterial activity of the compound of formula (I) was further evaluated in an expanded MRSA and Pa MIC panel (see Table 4 and FIG. 6).

Pa2694 = assay: MIC, broth microdilution (Example 5), Table 3; type: cell-based; conditions: Pseudomonas aeruginosa
Method: as §3

Sa399 (ATCC43300, MRSA) = assay: MIC, broth microdilution (Example 5), Table 3; type: cell-based; conditions: Staphylococcus aureus
Method: as §3

[4] = test system: Sa1721 (NARSA NRS384, MRSA USA 300); assay: MIC, broth microdilution (Example 5), Table 3; type: cell-based; conditions: Staphylococcus aureus
Method: as §3

Pa2698 = assay: MIC, broth microdilution (Example 5), Table 3; type: cell-based; conditions: Pseudomonas aeruginosa
Method: as §3

Pa2241 = assay: MIC, broth microdilution (Example 5), Table 3; type: cell-based; conditions: Pseudomonas aeruginosa
Method: as §3

Pa44 (ATCC27853) = assay: MIC, broth microdilution (Example 5), Table 3; type: cell-based; conditions: Pseudomonas aeruginosa
Method: as §3

## CO/N=C(\C(=O)N[C@@H]1C(=O)N2C(C(=O)[O-])=C(C[n+]3ccc(N)c(NC(=O)Nc4ccc(CCNC(=N)N)cc4)c3)CS[C@H]12)c1nc(N)sc1Cl [(I)]
[1]
  Septicemia PD50 (± SE): 5.3 ± 0.7 mg/kg
[2]
  Septicemia PD50 (± SE): <10.4 mg/kg
[3]
  Septicemia PD50 (± SE): <1.3 mg/kg
MRSA #712
  Thigh (T) ED−2log: 68.9 mg/kg and 68.9 (T) mg/kg
Pa2086 (mucoid strain)
  MIC: 8 µg/mL (≈ 10.8 µM)
Pa2694
  MIC: 8 µg/mL (≈ 10.8 µM)
Sa399 (ATCC43300, MRSA)
  MIC: 2 µg/mL (≈ 2.69 µM)
[4]
  MIC: 8 µg/mL (≈ 10.8 µM)
Pa2698
  MIC: 8 µg/mL (≈ 10.8 µM)
Pa2241
  MIC: 1 µg/mL (≈ 1.35 µM)
Pa44 (ATCC27853)
  MIC: 2 µg/mL (≈ 2.69 µM)
